Measured values as given in patent US12503476B2, “Ring-fused 2-pyridone compounds, methods for preparation thereof and their use in the treatment and/or prevention of a disease involving gram-positive bacteria” (QURETECH BIO AB, priority 2020, dated 2025).
≈ marks a conversion by molar mass, not a printed value. Like-named read-outs stand apart in the source and are kept apart here.

Experiments:
[1] = system: MRSA; assay: Minimum Bactericidal Concentration (MBC) assay, MRSA; conditions: Staphylococcus aureus, MRSA
[2] = system: E. faecalis; assay: Minimum Inhibitory Concentration (MIC) assay, E. faecalis; type: cell-based, Enterococcus faecalis; conditions: for MIC: Enterococcus faecalis, read-out: MIC for E. faecalis; for Growth inhibition of the pathogen of interest compared to the compound of Example 14 in WO 2018/229141: conclusion from Table 3 (E. faecalis and MRSA)
Protocol: (§1) The cultures (200 μl) were incubated at 37° C. for 24 h. […] The MIC was measured in micromolar concentration, i.e. μM. Objectively, this was determined by measuring the optical density (i.e. OD) of the test cultures at 600 nm using a spectrophotometer. As used herein, OD600 stands for optical density at a wavelength of 600 nm (i.e. 600 nanometers).

[3] = system: MRSA 1369; assay: Combined activity with gentamicin, vancomycin or ampicillin, MRSA 1369; type: cell-based, Methicillin-resistant Staphylococcus aureus; conditions: subinhibitory compound 1-4 μM, OD600 24 h; for MRSA activity, combination with ampicillin compared to ampicillin alone or compound alone: ampicillin 16 μg/ml; for MRSA activity, combination with vancomycin compared to vancomycin alone or compound alone: vancomycin 1 μg/ml
Protocol: (§2) […]. The concentrations used in the experiments with E. faecalis OG1RF were 16 μg/ml gentamicin, 1 μg/ml vancomycin or 1 μg/ml ampicillin. In experiments where combinations were tested against MRSA 1369, 0.05 μg/ml gentamicin, 1 μg/ml vancomycin or 16 μg/ml ampicillin was used.
(§3) Bacterial cultures (190 μl) at a starting OD=0.001 at OD600 were incubated together with either subinhibitory concentrations of gentamicin/vancomycin/ampicillin or compound alone, or a combination of the two. The cultures (200 μl) were incubated at 37° C. for 24 h. A control sample without compound and gentamicin/vancomycin/ampicillin but containing compound vehicle (DMSO) and gentamicin/vancomycin/ampicillin vehicle (MQ water) was performed the same way. After 24 h, the effect on bacterial growth compared to untreated control samples was determined by measuring optical density at 600 nm with a spectrophotometer.

[4] = system: MRSA; assay: Minimum Inhibitory Concentration (MIC) assay, MRSA; type: cell-based, Methicillin-resistant Staphylococcus aureus; conditions: Staphylococcus aureus, MRSA, 24 h, read-out: MIC for MRSA
Protocol: as §1

[5] = system: E. faecalis OG1RF; assay: Combined activity with gentamicin, vancomycin or ampicillin, E. faecalis OG1RF; type: cell-based, Enterococcus faecalis; conditions: for OD600 at 24 h when combined with gentamicin / Synergistic effect when combined with gentamicin: compound 1 μM; for OD600 at 24 h when combined with gentamicin / Synergistic effect when combined with gentamicin / E. faecalis activity, combination with gentamicin compared to gentamicin alone, compound alone and comparative example alone / E. faecalis activity, combination with gentamicin compared to the combination of the comparative example and gentamicin: gentamicin 16 μg/ml; for Synergistic effect when combined with gentamicin: 24 h, n.d. = activity not observed; for E. faecalis activity, combination with gentamicin compared to gentamicin alone, compound alone and comparative example alone / E. faecalis activity, combination with gentamicin compared to the combination of the comparative example and gentamicin / E. faecalis activity, combination with vancomycin compared to vancomycin alone or compound alone: subinhibitory compound 1-4 μM, OD600 24 h; for E. faecalis activity, combination with vancomycin compared to vancomycin alone or compound alone: vancomycin 1 μg/ml
Protocol: as §2, §3
[…]. MIC/MBC values for the compounds administered alone are also shown for comparison. Unless otherwise stated, the compound was provided in a concentration of 1 μM.

[6] = system: E. faecalis; assay: Minimum Bactericidal Concentration (MBC) assay, E. faecalis; conditions: Enterococcus faecalis, read-out: MBC for E. faecalis
[7] = read-out: MBC for MRSA, Table 3, compound alone, no antibiotic, MIC cultures plated on BHI, second figure of MIC/MBC, n.d. = activity not observed at the concentrations tested
[8] = 24 h, Table 3, compound alone, no antibiotic, 24 h, 37° C., OD600, first figure of MIC/MBC, n.d. = activity not observed at the concentrations tested
[9] = Table 4, compound administered alone, first figure of MIC/MBC, n.d. = activity not observed
[10] = Table 3, compound alone, no antibiotic, 37° C., OD600, first figure of MIC/MBC, n.d. = activity not observed at the concentrations tested

Compound | MBC [1, 7] | MIC [2, 8] | MIC [2, 9] | Growth inhibition of the pathogen of interest compared to the compound of Example 14 in WO 2018/229141 ([2]; compound alone) | MRSA activity, combination with ampicillin compared to ampicillin alone or compound alone [3] | MRSA activity, combination with vancomycin compared to vancomycin alone or compound alone [3] | MIC [4, 10] | OD600 at 24 h when combined with gentamicin [5] | Synergistic effect when combined with gentamicin [5] | E. faecalis activity, combination with gentamicin compared to gentamicin alone, compound alone and comparative example alone [5] | E. faecalis activity, combination with gentamicin compared to the combination of the comparative example and gentamicin [5] | MBC ([1]; read-out: MBC for MRSA) | MIC ([2]; 24 h) | MIC [2] | MBC [6] | MIC [4] | MRSA activity, combination with gentamicin compared to gentamicin alone or compound alone ([3]; gentamicin 0.05 μg/ml) | E. faecalis activity, combination with vancomycin compared to vancomycin alone or compound alone [5]
O=C(O)C12C[C@@H](c3cc(Cl)cc(Cl)c3)C1Sc1c(C3CC3)c(Cc3cccc4ccccc34)cc(=O)n12 (stereo partly drawn) [Example 15] | 4 µM (≈ 2.19 µg/mL) | 3 µM (≈ 1.65 µg/mL) | 3 µM (≈ 1.65 µg/mL) | substantially similar extent or to a higher extent | much larger extent | much larger extent | 2 µM (≈ 1.1 µg/mL) | OD600 = 0 | Yes | much larger extent | much larger extent | – | – | – | – | – | – | –
Cc1cccc([C@@H]2CC3(C(=O)O)C2Sc2c(C4CC4)c(Cc4cccc5ccccc45)cc(=O)n23)c1 (stereo partly drawn) [Example 19A] | – | – | – | substantially similar extent or to a higher extent | – | – | – | – | Yes | – | – | 10 µM (≈ 4.94 µg/mL) | 7.5 µM (≈ 3.7 µg/mL) | 7.5 µM (≈ 3.7 µg/mL) | 25 µM (≈ 12.3 µg/mL) | 5 µM (≈ 2.47 µg/mL) | – | –
Cc1cc(C)cc([C@@H]2CC3(C(=O)O)C2Sc2c(C4CC4)c(Cc4cccc5ccccc45)cc(=O)n23)c1 (stereo partly drawn) [Example 21] | 7.5 µM (≈ 3.81 µg/mL) | 5 µM (≈ 2.54 µg/mL) | 5 µM (≈ 2.54 µg/mL) | substantially similar extent or to a higher extent | – | – | 3 µM (≈ 1.52 µg/mL) | OD600 = 0.1 | Yes | much larger extent | – | – | – | – | 25 µM (≈ 12.7 µg/mL) | – | – | –
O=C(O)C12C[C@@H](c3cccc(Cl)c3)C1Sc1c(C3CC3)c(Cc3cc4ccccc4s3)cc(=O)n12 (stereo partly drawn) [Example 30] | – | 5 µM (≈ 2.6 µg/mL) | – | – | – | much larger extent | 5 µM (≈ 2.6 µg/mL) | – | – | much larger extent | much larger extent | – | – | – | – | – | much larger extent | much larger extent
O=C(O)C12C[C@@H](c3c(Cl)cccc3Cl)C1Sc1c(C3CC3)c(Cc3cccc4ccccc34)cc(=O)n12 (stereo partly drawn) [Example 33] | – | 5 µM (≈ 2.74 µg/mL) | – | substantially similar extent or to a higher extent | much larger extent | much larger extent | 5 µM (≈ 2.74 µg/mL) | – | – | much larger extent | much larger extent | – | – | – | – | – | – | much larger extent
